System: MV-4-11 cells
Test: Gene expression microarray analysis (Affymetrix PrimeView) and GSEA
Assay type: cell-based, human
Set-up: RFU PODN (11730768_x_at) / Fold change /veh PODN (11730768_x_at) / RFU LINC00158 (11744669_a_at) / Fold change /veh LINC00158 (11744669_a_at) / RFU DUSP10 (11751237_a_at) / Fold change /veh DUSP10 (11751237_a_at) / RFU ID3 (11757404_x_at) / Fold change /veh ID3 (11757404_x_at) / RFU PLEKHG5 (11737974_s_at) / Fold change /veh PLEKHG5 (11737974_s_at) / RFU LRRC4B (11730491_at) / Fold change /veh LRRC4B (11730491_at) / RFU GIMAP4 (11747438_a_at) / Fold change /veh GIMAP4 (11747438_a_at) / RFU KRT8 (11758183_x_at) / Fold change /veh KRT8 (11758183_x_at) / RFU CNN1 (11734310_a_at) / Fold change /veh CNN1 (11734310_a_at) / RFU VPS37D (11726825_at) / Fold change /veh VPS37D (11726825_at) / RFU C10orf10 (11716522_x_at) / Fold change /veh C10orf10 (11716522_x_at) / RFU KIR2DL2 /// KIR2DL4 /// KIR2DL5A /// KIR2DL5B /// KIR2DS1 /// KIR2DS2 /// KIR2DS3 /// KIR2DS4 /// KIR3DL3 /// KIR3DL3 /// KIR3DS1 (11738374_at) / Fold change /veh KIR2DL2 /// KIR2DL4 /// KIR2DL5A /// KIR2DL5B /// KIR2DS1 /// KIR2DS2 /// KIR2DS3 /// KIR2DS4 /// KIR3DL3 /// KIR3DL3 /// KIR3DS1 (11738374_at) / RFU C1QL1 (11718748_at) / Fold change /veh C1QL1 (11718748_at) / RFU TMPRSS4 (11747572_a_at) / Fold change /veh TMPRSS4 (11747572_a_at) / RFU HAMP (11756126_x_at) / Fold change /veh HAMP (11756126_x_at) / RFU RNFT2 (11725882_a_at) / Fold change /veh RNFT2 (11725882_a_at) / RFU NR4A2 (11747474_a_at) / Fold change /veh NR4A2 (11747474_a_at) / RFU ABCC12 (11746883_a_at) / Fold change /veh ABCC12 (11746883_a_at) / RFU TMEM136 (11760407_x_at) / Fold change /veh TMEM136 (11760407_x_at) / RFU CLDN22 /// WWC2 (11732394_at) / Fold change /veh CLDN22 /// WWC2 (11732394_at) / RFU HLA-DPB1 (11760878_x_at) / Fold change /veh HLA-DPB1 (11760878_x_at) / RFU SPINT1 (11716480_a_at) / Fold change /veh SPINT1 (11716480_a_at) / RFU GAP43 (11754022_s_at) / Fold change /veh GAP43 (11754022_s_at) / RFU A4GNT (11735810_at) / Fold change /veh A4GNT (11735810_at) / RFU PRB3 (11715151_x_at) / Fold change /veh PRB3 (11715151_x_at) / RFU TUBB4B (11761932_at) / Fold change /veh TUBB4B (11761932_at) / RFU CAPN14 (11732068_a_at) / Fold change /veh CAPN14 (11732068_a_at) / RFU TMCC2 (11721928_a_at) / Fold change /veh TMCC2 (11721928_a_at) / RFU IRGQ (11745062_a_at) / Fold change /veh IRGQ (11745062_a_at) / RFU FAM174B (11720279_a_at) / Fold change /veh FAM174B (11720279_a_at) / RFU TMPRSS4 (11748680_a_at) / Fold change /veh TMPRSS4 (11748680_a_at) / RFU FAM212B (11763350_a_at) / Fold change /veh FAM212B (11763350_a_at) / RFU PLEKHG5 (11743358_a_at) / Fold change /veh PLEKHG5 (11743358_a_at) / RFU ZSCAN30 (11745921_a_at) / Fold change /veh ZSCAN30 (11745921_a_at) / RFU CMKLR1 (11741424_a_at) / Fold change /veh CMKLR1 (11741424_a_at) / RFU LOC101060620 /// MAPK8IP1 (11723275_at) / Fold change /veh LOC101060620 /// MAPK8IP1 (11723275_at) / RFU SPTSSB (11747773_x_at) / Fold change /veh SPTSSB (11747773_x_at) / RFU PRSS12 (11739890_at) / Fold change /veh PRSS12 (11739890_at) / RFU BIN1 (11741810_x_at) / Fold change /veh BIN1 (11741810_x_at) / RFU WNT11 (11732464_a_at) / Fold change /veh WNT11 (11732464_a_at) / RFU C10orf10 (11716521_a_at) / Fold change /veh C10orf10 (11716521_a_at) / RFU C5orf56 (11738089_at) / Fold change /veh C5orf56 (11738089_at) / RFU CYB561 (11721691_x_at) / Fold change /veh CYB561 (11721691_x_at) / RFU ANKRD19P (11752326_a_at) / Fold change /veh ANKRD19P (11752326_a_at) / RFU OR2T12 /// OR2T33 /// OR2T8 (11738714_s_at) / Fold change /veh OR2T12 /// OR2T33 /// OR2T8 (11738714_s_at) / RFU VCAN (11748164_a_at) / Fold change /veh VCAN (11748164_a_at) / RFU JSRP1 (11732532_at) / Fold change /veh JSRP1 (11732532_at) / RFU KRTAP10-11 (11738290_x_at) / Fold change /veh KRTAP10-11 (11738290_x_at) / RFU MYO3A (11730013_a_at) / Fold change /veh MYO3A (11730013_a_at) / RFU EBF3 (11725865_a_at) / Fold change /veh EBF3 (11725865_a_at) / RFU CAMK2N1 (11719241_x_at) / Fold change /veh CAMK2N1 (11719241_x_at) / RFU C5orf56 (11738088_a_at) / Fold change /veh C5orf56 (11738088_a_at) / RFU OLFML3 (11715873_a_at) / Fold change /veh OLFML3 (11715873_a_at) / RFU LOC100653217 /// NTM (11731650_a_at) / Fold change /veh LOC100653217 /// NTM (11731650_a_at) / RFU MAPK11 (11762145_a_at) / Fold change /veh MAPK11 (11762145_a_at) / RFU FIZ1 (11724087_x_at) / Fold change /veh FIZ1 (11724087_x_at) / RFU OASL (11726364_x_at) / Fold change /veh OASL (11726364_x_at) / RFU SOX15 (11748057_x_at) / Fold change /veh SOX15 (11748057_x_at) / RFU CD79A (11719716_a_at) / Fold change /veh CD79A (11719716_a_at) / RFU HIST1H1D (11736915_at) / Fold change /veh HIST1H1D (11736915_at) / RFU CASKIN2 (11723855_a_at) / Fold change /veh CASKIN2 (11723855_a_at) / RFU LOC730098 (11760151_x_at) / Fold change /veh LOC730098 (11760151_x_at) / RFU OR4N2 (11742367_at) / Fold change /veh OR4N2 (11742367_at) / RFU PRRT2 (11749266_a_at) / Fold change /veh PRRT2 (11749266_a_at) / RFU SNX32 (11753110_a_at) / Fold change /veh SNX32 (11753110_a_at) / RFU CDHR5 (11726645_a_at) / Fold change /veh CDHR5 (11726645_a_at) / RFU RCAN1 (11760418_a_at) / Fold change /veh RCAN1 (11760418_a_at) / RFU FAM167A (11723789_a_at) / Fold change /veh FAM167A (11723789_a_at) / RFU FAM26E (11764081_at) / Fold change /veh FAM26E (11764081_at) / RFU ISYNA1 (11749810_s_at) / Fold change /veh ISYNA1 (11749810_s_at) / RFU ACY1 (11761880_at) / Fold change /veh ACY1 (11761880_at) / RFU 11764098_at / Fold change /veh 11764098_at / RFU SAMD14 (11745864_x_at) / Fold change /veh SAMD14 (11745864_x_at) / RFU NPB (11741838_a_at) / Fold change /veh NPB (11741838_a_at) / RFU TMPRSS6 (11731388_a_at) / Fold change /veh TMPRSS6 (11731388_a_at) / RFU KRTAP10-2 (11738614_at) / Fold change /veh KRTAP10-2 (11738614_at) / RFU ARHGAP8 /// PRR5-ARHGAP8 (11727945_x_at) / Fold change /veh ARHGAP8 /// PRR5-ARHGAP8 (11727945_x_at) / RFU KRTAP5-7 /// NADSYN1 (11734609_at) / Fold change /veh KRTAP5-7 /// NADSYN1 (11734609_at) / RFU RASL12 (11751679_a_at) / Fold change /veh RASL12 (11751679_a_at) / RFU CDKN2B (11736163_a_at) / Fold change /veh CDKN2B (11736163_a_at) / RFU PRF1 (11729649_at) / Fold change /veh PRF1 (11729649_at) / RFU, ZNF638 /// ZNF638-IT1 / Fold change vs veh, ZNF638 /// ZNF638-IT1 / RFU, PANK3 / Fold change vs veh, PANK3 / RFU, SH3YL1 / Fold change vs veh, SH3YL1 / RFU, ZEB2 / Fold change vs veh, ZEB2 / RFU, NRIP1 / Fold change vs veh, NRIP1 / RFU, PTTG1IP / Fold change vs veh, PTTG1IP / RFU, CAPN2 / Fold change vs veh, CAPN2 / RFU, MED14 / Fold change vs veh, MED14 / RFU, SNORA58 / Fold change vs veh, SNORA58 / RFU, C1orf63 / Fold change vs veh, C1orf63 / RFU, LRRFIP1 / Fold change vs veh, LRRFIP1 / RFU, NDUFAF7 / Fold change vs veh, NDUFAF7 / RFU, SLC12A2 / Fold change vs veh, SLC12A2 / RFU, IBTK / Fold change vs veh, IBTK / RFU, ESF1 / Fold change vs veh, ESF1 / Fold change vs veh, TMEM50B / RFU, TAOK1 / Fold change vs veh, TAOK1 / RFU, ACBD3 / Fold change vs veh, ACBD3 / RFU, TMA16 / Fold change vs veh, TMA16 / RFU, RWDD3 / Fold change vs veh, RWDD3 / RFU, BCAT1 / Fold change vs veh, BCAT1 / RFU, EDEM3 / Fold change vs veh, EDEM3 / RFU, TMEM33 / Fold change vs veh, TMEM33 / RFU, WDR75 / Fold change vs veh, WDR75 / RFU, AHCTF1 / Fold change vs veh, AHCTF1 / RFU, TFRC / Fold change vs veh, TFRC / RFU, ZDHHC17 / Fold change vs veh, ZDHHC17 / RFU, NOM1 / Fold change vs veh, NOM1 / RFU, ARL8B / Fold change vs veh, ARL8B / RFU, ZBTB11 / Fold change vs veh, ZBTB11 / RFU, TAMM41 / Fold change vs veh, TAMM41 / RFU, KIAA1704 /// LOC100996395 / Fold change vs veh, KIAA1704 /// LOC100996395 / RFU, ING1 / Fold change vs veh, ING1 / RFU, TRMT61B / Fold change vs veh, TRMT61B / RFU, FUBP3 / Fold change vs veh, FUBP3 / RFU, TP53 / Fold change vs veh, TP53 / RFU, TNKS2 / Fold change vs veh, TNKS2 / RFU, ZFP14 / Fold change vs veh, ZFP14 / RFU, ACTR2 / Fold change vs veh, ACTR2 / RFU, PPP3R1 / Fold change vs veh, PPP3R1 / RFU, PIK3R1 / Fold change vs veh, PIK3R1 / RFU, HNRNPA1 / Fold change vs veh, HNRNPA1 / RFU, RNF170 / Fold change vs veh, RNF170 / RFU, ZNF28 / Fold change vs veh, ZNF28 / RFU, RNGTT / Fold change vs veh, RNGTT / RFU, OGT / Fold change vs veh, OGT / RFU, BRD1 / Fold change vs veh, BRD1 / RFU, MARS / Fold change vs veh, MARS / RFU, ZNF655 / Fold change vs veh, ZNF655 / RFU, FAHD1 / Fold change vs veh, FAHD1 / RFU, BDP1 / Fold change vs veh, BDP1 / RFU, LRRCC1 / Fold change vs veh, LRRCC1 / RFU, ARID1A / Fold change vs veh, ARID1A / RFU, ZNF146 / Fold change vs veh, ZNF146 / RFU, ZNF330 / Fold change vs veh, ZNF330 / RFU, GPN3 / Fold change vs veh, GPN3 / RFU, C9orf123 / Fold change vs veh, C9orf123 / RFU, N4BP2L2 / Fold change vs veh, N4BP2L2 / RFU, ARFIP1 / Fold change vs veh, ARFIP1 / RFU, FAM179B / Fold change vs veh, FAM179B / RFU, BCL10 / Fold change vs veh, BCL10 / RFU, UHRF1BP1L / Fold change vs veh, UHRF1BP1L / RFU, BET1 / Fold change vs veh, BET1 / RFU, CNOT2 / Fold change vs veh, CNOT2 / RFU, ZNF268 / Fold change vs veh, ZNF268 / Fold change vs veh, ZNF507 / RFU, DGCR2 / Fold change vs veh, DGCR2 / RFU, WDSUB1 / Fold change vs veh, WDSUB1 / Fold change vs veh, HSP90B1 /// MIR3652 / RFU, ADSS / Fold change vs veh, ADSS / RFU, GK / Fold change vs veh, GK / RFU, ZNF148 / Fold change vs veh, ZNF148 / RFU, TAF9 / Fold change vs veh, TAF9 / RFU, SLC1A5 / Fold change vs veh, SLC1A5 / RFU, SLMO2 / Fold change vs veh, SLMO2 / RFU, ABCC4 / Fold change vs veh, ABCC4 / RFU, LOC101060439 /// RAP1B / Fold change vs veh, LOC101060439 /// RAP1B / RFU, RFX7 / Fold change vs veh, RFX7 / RFU, GTPBP10 / Fold change vs veh, GTPBP10 / RFU, CNEP1R1 / Fold change vs veh, CNEP1R1 / RFU, BIVM-ERCC5 /// ERCC5 / Fold change vs veh, BIVM-ERCC5 /// ERCC5 / RFU, ILF3 / Fold change vs veh, ILF3 / RFU 11762660_at / Fold change /veh 11762660_at / RFU VCAN (11757783_s_at) / Fold change /veh VCAN (11757783_s_at) / RFU DDX43 (11728927_at) / Fold change /veh DDX43 (11728927_at) / RFU KRT8 (11758188_x_at) / Fold change /veh KRT8 (11758188_x_at) / RFU NKD1 (11759106_at) / Fold change /veh NKD1 (11759106_at) / RFU SRD5A1 (11742802_a_at) / Fold change /veh SRD5A1 (11742802_a_at) / RFU TPSAB1 /// TPSB2 (11721975_s_at) / Fold change /veh TPSAB1 /// TPSB2 (11721975_s_at) / RFU GSTM3 (11746129_a_at) / Fold change /veh GSTM3 (11746129_a_at) / RFU IL23R (11737362_x_at) / Fold change /veh IL23R (11737362_x_at) / RFU TMEM51 (11727254_a_at) / Fold change /veh TMEM51 (11727254_a_at) / RFU PIWIL2 (11732686_x_at) / Fold change /veh PIWIL2 (11732686_x_at) / RFU ORM1 (11744905_x_at) / Fold change /veh ORM1 (11744905_x_at) / RFU CCDC152 (11743942_at) / Fold change /veh CCDC152 (11743942_at) / RFU ECM1 (11717891_a_at) / Fold change /veh ECM1 (11717891_a_at) / RFU IL23R (11748794_a_at) / Fold change /veh IL23R (11748794_a_at) / RFU TNFAIP8L3 (11732012_x_at) / Fold change /veh TNFAIP8L3 (11732012_x_at) / RFU MBOAT4 (11741988_at) / Fold change /veh MBOAT4 (11741988_at) / RFU 11764193_at / Fold change /veh 11764193_at / RFU TMEM53 (11763286_at) / Fold change /veh TMEM53 (11763286_at) / RFU MAGEB2 (11727129_at) / Fold change /veh MAGEB2 (11727129_at) / RFU TMEM200A (11744735_a_at) / Fold change /veh TMEM200A (11744735_a_at) / RFU CCDC152 (11751479_a_at) / Fold change /veh CCDC152 (11751479_a_at) / RFU FAM211A (11726209_a_at) / Fold change /veh FAM211A (11726209_a_at) / RFU RGS16 (11746705_a_at) / Fold change /veh RGS16 (11746705_a_at) / RFU VCAN (11755009_s_at) / Fold change /veh VCAN (11755009_s_at) / RFU RHOB (11743442_s_at) / Fold change /veh RHOB (11743442_s_at) / RFU RGS16 (11720943_a_at) / Fold change /veh RGS16 (11720943_a_at) / RFU RGS16 (11720944_at) / Fold change /veh RGS16 (11720944_at) / RFU, VPS4B / Fold change vs veh, VPS4B / RFU, CREB1 / Fold change vs veh, CREB1 / RFU, DNAJC13 / Fold change vs veh, DNAJC13 / RFU, GNAQ / Fold change vs veh, GNAQ / RFU, CDK5R1 / Fold change vs veh, CDK5R1 / RFU, ZRANB3 / Fold change vs veh, ZRANB3 / RFU, CUL4A / Fold change vs veh, CUL4A / RFU, CCNY / Fold change vs veh, CCNY / RFU, UFL1 / Fold change vs veh, UFL1 / RFU, COG3 / Fold change vs veh, COG3 / RFU, DIAPH2 / Fold change vs veh, DIAPH2 / RFU, SKA2 / Fold change vs veh, SKA2 / RFU, AFF3 / Fold change vs veh, AFF3 / RFU, LMF1 / Fold change vs veh, LMF1 / RFU, IPO11 / Fold change vs veh, IPO11 / RFU, DFFB / Fold change vs veh, DFFB / RFU, FOXP1 / Fold change vs veh, FOXP1 / RFU, CARD8 / Fold change vs veh, CARD8 / RFU, STRN3 / Fold change vs veh, STRN3 / RFU, ADK / Fold change vs veh, ADK / RFU, RASSF2 / Fold change vs veh, RASSF2 / RFU, WIPF1 / Fold change vs veh, WIPF1 / RFU, LARP1B / Fold change vs veh, LARP1B / RFU, RASA1 / Fold change vs veh, RASA1 / RFU, RB1 / Fold change vs veh, RB1 / RFU, PPFIA1 / Fold change vs veh, PPFIA1 / RFU, MAT2A / Fold change vs veh, MAT2A / RFU, CCT5 / Fold change vs veh, CCT5 / RFU, WDR92 / Fold change vs veh, WDR92 / RFU, CUX1 / Fold change vs veh, CUX1 / RFU, TTC7A / Fold change vs veh, TTC7A / RFU, TMEM135 / Fold change vs veh, TMEM135 / RFU, DEPTOR / Fold change vs veh, DEPTOR / RFU, CPM / Fold change vs veh, CPM / RFU, DNAJB6 / Fold change vs veh, DNAJB6 / RFU, CACNA2D3 / Fold change vs veh, CACNA2D3 / RFU, DTX4 / Fold change vs veh, DTX4 / RFU, TFCP2 / Fold change vs veh, TFCP2 / RFU, GMCL1 /// GMCL1P1 / Fold change vs veh, GMCL1 /// GMCL1P1 / RFU, AEBP2 / Fold change vs veh, AEBP2 / RFU, SNHG1 /// SNORD22 /// SNORD25 /// SNORD26 /// SNORD27 /// SNORD28 /// SNORD29 /// SNORD31 / Fold change vs veh, SNHG1 /// SNORD22 /// SNORD25 /// SNORD26 /// SNORD27 /// SNORD28 /// SNORD29 /// SNORD31 / Fold change (Aza/veh), C12orf56 (ProbeSet 11735607_a_at) / Fold change (ACY-1035/veh), C12orf56 (ProbeSet 11735607_a_at) / Fold change (Aza/veh), FGFR1OP (ProbeSet 11751329_s_at) / Fold change (ACY-1035/veh), FGFR1OP (ProbeSet 11751329_s_at) / Fold change (Aza/veh), VPS36 (ProbeSet 11739960_a_at) / Fold change (ACY-1035/veh), VPS36 (ProbeSet 11739960_a_at) / RFU SYPL1 (11715823_x_at) / Fold change /veh SYPL1 (11715823_x_at) / RFU IGFBP7 (11715501_s_at) / Fold change /veh IGFBP7 (11715501_s_at) / RFU REEP3 (11722064_at) / Fold change /veh REEP3 (11722064_at) / RFU IGLL1 (11728026_x_at) / Fold change /veh IGLL1 (11728026_x_at): dose or concentration left out as unconfirmed
Conditions: ProbeSet 11740528_a_at; LIST D

Nc1ncn([C@@H]2O[C@H](CO)[C@@H](O)[C@H]2O)c(=O)n1 [azacitidine]
Fold change vs veh, AFF3: 0.47

Reference: article PMC5218480 (PLoS ONE, 2017)
